Test results: PubChem BioAssay (NCI)
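Each compound was tested at five concentrations against cells in 96-well plates for 48 hours. Definition used: TGI = concentration required for complete inhibition of growth.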

How the values were obtained:
Experiment in all cases: growth of human tumour cells (NCI), 48 h
786-0 renal = system: 786-0 renal
A498 renal = system: A498 renal
A549 NSCLC = system: A549 NSCLC
ACHN renal = system: ACHN renal
CCRF-CEM leukemia = system: CCRF-CEM leukemia
COLO 205 colon = system: COLO 205 colon
DLD-1 colon = system: DLD-1 colon
DMS 114 small cell lung = system: DMS 114 small cell lung
EKVX NSCLC = system: EKVX NSCLC
HCC-2998 colon = system: HCC-2998 colon
HCT-116 colon = system: HCT-116 colon
HCT-15 colon = system: HCT-15 colon
HL-60(TB) leukemia = system: HL-60(TB) leukemia
HOP-18 NSCLC = system: HOP-18 NSCLC
HOP-62 NSCLC = system: HOP-62 NSCLC
HOP-92 NSCLC = system: HOP-92 NSCLC
HT29 colon = system: HT29 colon
IGROV1 ovarian = system: IGROV1 ovarian
K-562 leukemia = system: K-562 leukemia
KM12 colon = system: KM12 colon
KM20L2 colon = system: KM20L2 colon
LXFL 529 NSCLC = system: LXFL 529 NSCLC
M14 melanoma = system: M14 melanoma
M19-MEL melanoma = system: M19-MEL melanoma
MALME-3M melanoma = system: MALME-3M melanoma
MOLT-4 leukemia = system: MOLT-4 leukemia
NCI-H23 lung = system: NCI-H23 lung
NCI-H460 lung = system: NCI-H460 lung
NCI-H522 lung = system: NCI-H522 lung
OVCAR-3 ovarian = system: OVCAR-3 ovarian
OVCAR-4 ovarian = system: OVCAR-4 ovarian
OVCAR-5 ovarian = system: OVCAR-5 ovarian
OVCAR-8 ovarian = system: OVCAR-8 ovarian
RXF 393 renal = system: RXF 393 renal
RXF-631 renal = system: RXF-631 renal
SF-268 CNS = system: SF-268 CNS
SF-295 CNS = system: SF-295 CNS
SF-539 CNS = system: SF-539 CNS
SK-MEL-2 melanoma = system: SK-MEL-2 melanoma
SK-MEL-28 melanoma = system: SK-MEL-28 melanoma
SK-MEL-5 melanoma = system: SK-MEL-5 melanoma
SN12C renal = system: SN12C renal
SNB-78 CNS = system: SNB-78 CNS
SR leukemia = system: SR leukemia
SW-620 colon = system: SW-620 colon
TK-10 renal = system: TK-10 renal
U251 CNS = system: U251 CNS
UACC-257 melanoma = system: UACC-257 melanoma
UACC-62 melanoma = system: UACC-62 melanoma
UO-31 renal = system: UO-31 renal

Measured: TGI

COC(=O)/C(=N\NC(=O)c1ccccc1O)C(C#N)c1ccc(Cl)cc1 (stereo not given)
37.3 µM: UO-31 renal
72.3 µM: NCI-H522 lung
> 100 µM: 786-0 renal | A498 renal | A549 NSCLC | ACHN renal | CCRF-CEM leukemia | COLO 205 colon | DLD-1 colon | DMS 114 small cell lung | EKVX NSCLC | HCT-116 colon | HCT-15 colon | HL-60(TB) leukemia | HOP-18 NSCLC | HOP-92 NSCLC | HT29 colon | IGROV1 ovarian | K-562 leukemia | KM12 colon | KM20L2 colon | LXFL 529 NSCLC | M14 melanoma | M19-MEL melanoma | MALME-3M melanoma | MOLT-4 leukemia | NCI-H460 lung | OVCAR-3 ovarian | OVCAR-4 ovarian | OVCAR-8 ovarian | RXF-631 renal | SF-268 CNS | SF-295 CNS | SF-539 CNS | SK-MEL-2 melanoma | SK-MEL-28 melanoma | SK-MEL-5 melanoma | SN12C renal | SNB-78 CNS | SR leukemia | SW-620 colon | TK-10 renal | U251 CNS | UACC-257 melanoma | UACC-62 melanoma
88.7 µM: HCC-2998 colon
90.3 µM: OVCAR-5 ovarian
95.8 µM: HOP-62 NSCLC
76 µM: NCI-H23 lung
79.8 µM: RXF 393 renal
